Measured values as given in ChEMBL document CHEMBL4229333, “Effects of rigidity on the selectivity of protein kinase inhibitors” (Eur J Med Chem, 2018).

What was measured:
[1] = molecular target: Dual specificity tyrosine-phosphorylation-regulated kinase 4 (Homo sapiens) (UniProt Q9NR20); assay: Inhibition of DYRK4 (unknown origin) at 1 uM by mobility shift microfluidics platform based assay relative to control
[2] = molecular target: Ribosomal protein S6 kinase beta-2 (Homo sapiens) (UniProt Q9UBS0); assay: Inhibition of P70S6K2 (unknown origin) at 1 uM by mobility shift microfluidics platform based assay relative to control
[3] = molecular target: Serine/threonine-protein kinase PAK 6 (Homo sapiens) (UniProt Q9NQU5); assay: Inhibition of PAK6 (unknown origin) at 1 uM by mobility shift microfluidics platform based assay relative to control
[4] = molecular target: Tyrosine-protein kinase JAK2 (Homo sapiens) (UniProt O60674); assay: Inhibition of JAK2 (unknown origin) at 1 uM by mobility shift microfluidics platform based assay relative to control
[5] = molecular target: Serine/threonine-protein kinase TAO3 (Homo sapiens) (UniProt Q9H2K8); assay: Inhibition of TAOK3 (unknown origin) at 1 uM by mobility shift microfluidics platform based assay relative to control
[6] = molecular target: AMP-activated protein kinase (AMPK) alpha-1/beta-1/gamma-1 (Homo sapiens) (UniProt P54619+Q9Y478+Q13131); assay: Inhibition of AMP-A1B1G1 (unknown origin) at 1 uM by mobility shift microfluidics platform based assay relative to control; format: protein-complex assay
[7] = molecular target: ALK tyrosine kinase receptor (Homo sapiens) (UniProt Q9UM73); assay: Inhibition of ALK (unknown origin) at 1 uM by mobility shift microfluidics platform based assay relative to control
[8] = molecular target: Vascular endothelial growth factor receptor 1 (Homo sapiens) (UniProt P17948); assay: Inhibition of FLT1 (unknown origin) at 1 uM by mobility shift microfluidics platform based assay relative to control
[9] = molecular target: Tyrosine-protein kinase Mer (Homo sapiens) (UniProt Q12866); assay: Inhibition of MER (unknown origin) at 1 uM by mobility shift microfluidics platform based assay relative to control
[10] = molecular target: Homeodomain-interacting protein kinase 3 (Homo sapiens) (UniProt Q9H422); assay: Inhibition of HIPK3 (unknown origin) at 1 uM by mobility shift microfluidics platform based assay relative to control
[11] = tested on: Leucine-rich repeat serine/threonine-protein kinase 2 (Homo sapiens), Q5S007 [G2019S]; assay: Inhibition of LRRK2 G2019S mutant (unknown origin) at 1 uM by mobility shift microfluidics platform based assay relative to control
[12] = molecular target: Phosphatidylinositol 4,5-bisphosphate 3-kinase catalytic subunit beta isoform (Homo sapiens) (UniProt P42338); assay: Inhibition of PI3K-beta (unknown origin) at 1 uM by mobility shift microfluidics platform based assay relative to control
[13] = molecular target: Serine/threonine-protein kinase Nek6 (Homo sapiens) (UniProt Q9HC98); assay: Inhibition of NEK6 (unknown origin) at 1 uM by mobility shift microfluidics platform based assay relative to control
[14] = molecular target: Serine/threonine-protein kinase 3 (Homo sapiens) (UniProt Q13188); assay: Inhibition of MST2 (unknown origin) at 1 uM by mobility shift microfluidics platform based assay relative to control
[15] = molecular target: Eukaryotic translation initiation factor 2-alpha kinase 3 (Homo sapiens) (UniProt Q9NZJ5); assay: Inhibition of PERK (unknown origin) at 1 uM by mobility shift microfluidics platform based assay relative to control
[16] = molecular target: Mitogen-activated protein kinase kinase kinase kinase 5 (Homo sapiens) (UniProt Q9Y4K4); assay: Inhibition of MAP4K5 (unknown origin) at 1 uM by mobility shift microfluidics platform based assay relative to control
[17] = molecular target: Ephrin type-A receptor 2 (Homo sapiens) (UniProt P29317); assay: Inhibition of EPH-A2 (unknown origin) at 1 uM by mobility shift microfluidics platform based assay relative to control
[18] = molecular target: Protein kinase C gamma type (Homo sapiens) (UniProt P05129); assay: Inhibition of PKC-gamma (unknown origin) at 1 uM by mobility shift microfluidics platform based assay relative to control
[19] = molecular target: MAP/microtubule affinity-regulating kinase 3 (Homo sapiens) (UniProt P27448); assay: Inhibition of MARK3 (unknown origin) at 1 uM by mobility shift microfluidics platform based assay relative to control
[20] = molecular target: Ribosomal protein S6 kinase alpha-1 (Homo sapiens) (UniProt Q15418); assay: Inhibition of RSK1 (unknown origin) at 1 uM by mobility shift microfluidics platform based assay relative to control
[21] = molecular target: Tyrosine-protein kinase receptor TYRO3 (Homo sapiens) (UniProt Q06418); assay: Inhibition of TYRO3 (unknown origin) at 1 uM by mobility shift microfluidics platform based assay relative to control
[22] = molecular target: Serine/threonine-protein kinase PAK 5 (Homo sapiens) (UniProt Q9P286); assay: Inhibition of PAK5 (unknown origin) at 1 uM by mobility shift microfluidics platform based assay relative to control
[23] = molecular target: Serine/threonine-protein kinase N2 (Homo sapiens) (UniProt Q16513); assay: Inhibition of PKN2 (unknown origin) at 1 uM by mobility shift microfluidics platform based assay relative to control
[24] = molecular target: AMPK alpha2/beta1/gamma1 (Homo sapiens) (UniProt P54646+P54619+Q9Y478); assay: Inhibition of AMP-A2B1G1 (unknown origin) at 1 uM by mobility shift microfluidics platform based assay relative to control; format: protein-complex assay
[25] = molecular target: Cyclin-T1/Cyclin-dependent-like kinase 5 (Homo sapiens) (UniProt Q00535+O60563); assay: Inhibition of CDK5/cyclin T1 (unknown origin) at 1 uM by mobility shift microfluidics platform based assay relative to control; format: protein-complex assay
[26] = molecular target: Dual specificity tyrosine-phosphorylation-regulated kinase 1B (Homo sapiens) (UniProt Q9Y463); assay: Inhibition of DYRK1B (unknown origin) at 1 uM by mobility shift microfluidics platform based assay relative to control
[27] = molecular target: Serine/threonine-protein kinase BRSK1 (Homo sapiens) (UniProt Q8TDC3); assay: Inhibition of BRSK1 (unknown origin) at 1 uM by mobility shift microfluidics platform based assay relative to control
[28] = molecular target: Homeodomain-interacting protein kinase 4 (Homo sapiens) (UniProt Q8NE63); assay: Inhibition of HIPK4 (unknown origin) at 1 uM by mobility shift microfluidics platform based assay relative to control
[29] = molecular target: Cyclin-dependent kinase 1 (Homo sapiens) (UniProt P06493); assay: Inhibition of CDK1 (unknown origin) at 1 uM by mobility shift microfluidics platform based assay relative to control
[30] = molecular target: Serine/threonine-protein kinase Sgk1 (Homo sapiens) (UniProt O00141); assay: Inhibition of SGK1 (unknown origin) at 1 uM by mobility shift microfluidics platform based assay relative to control
[31] = molecular target: Calcium/calmodulin-dependent protein kinase type IV (Homo sapiens) (UniProt Q16566); assay: Inhibition of CAMK4 (unknown origin) at 1 uM by mobility shift microfluidics platform based assay relative to control
[32] = molecular target: SRSF protein kinase 3 (Homo sapiens) (UniProt Q9UPE1); assay: Inhibition of MSSK1 (unknown origin) at 1 uM by mobility shift microfluidics platform based assay relative to control
[33] = molecular target: Ephrin type-A receptor 5 (Homo sapiens) (UniProt P54756); assay: Inhibition of EPH-A5 (unknown origin) at 1 uM by mobility shift microfluidics platform based assay relative to control
Sequence of Ephrin type-A receptor 5 (Homo sapiens) (P54756 whole entry): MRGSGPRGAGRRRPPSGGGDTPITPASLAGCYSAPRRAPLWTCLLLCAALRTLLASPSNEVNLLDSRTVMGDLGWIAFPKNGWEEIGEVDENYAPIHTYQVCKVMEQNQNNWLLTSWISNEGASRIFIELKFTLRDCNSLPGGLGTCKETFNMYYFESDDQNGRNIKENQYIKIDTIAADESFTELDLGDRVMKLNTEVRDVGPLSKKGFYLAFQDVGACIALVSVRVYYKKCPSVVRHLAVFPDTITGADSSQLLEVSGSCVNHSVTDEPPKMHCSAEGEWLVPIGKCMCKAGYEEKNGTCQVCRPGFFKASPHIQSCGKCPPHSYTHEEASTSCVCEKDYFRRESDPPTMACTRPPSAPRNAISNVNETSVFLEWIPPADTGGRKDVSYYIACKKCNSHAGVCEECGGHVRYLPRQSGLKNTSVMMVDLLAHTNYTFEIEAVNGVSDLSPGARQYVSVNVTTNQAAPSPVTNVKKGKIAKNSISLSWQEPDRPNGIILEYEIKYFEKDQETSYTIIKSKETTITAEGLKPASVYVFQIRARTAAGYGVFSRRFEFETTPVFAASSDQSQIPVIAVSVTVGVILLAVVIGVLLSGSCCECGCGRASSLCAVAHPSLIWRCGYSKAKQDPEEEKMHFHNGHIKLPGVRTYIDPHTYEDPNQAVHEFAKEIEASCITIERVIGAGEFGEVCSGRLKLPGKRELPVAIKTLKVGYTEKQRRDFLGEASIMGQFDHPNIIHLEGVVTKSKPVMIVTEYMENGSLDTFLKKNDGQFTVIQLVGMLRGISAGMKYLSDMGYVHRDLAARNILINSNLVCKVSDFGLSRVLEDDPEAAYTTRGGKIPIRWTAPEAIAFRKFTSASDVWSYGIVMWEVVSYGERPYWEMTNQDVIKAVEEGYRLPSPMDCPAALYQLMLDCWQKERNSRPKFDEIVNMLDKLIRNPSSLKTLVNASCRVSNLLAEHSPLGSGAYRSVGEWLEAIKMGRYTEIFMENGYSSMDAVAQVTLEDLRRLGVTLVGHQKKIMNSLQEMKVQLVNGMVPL

Sequence of Phosphatidylinositol 4,5-bisphosphate 3-kinase catalytic subunit beta isoform (Homo sapiens) (P42338 whole entry, looked up, canonical isoform): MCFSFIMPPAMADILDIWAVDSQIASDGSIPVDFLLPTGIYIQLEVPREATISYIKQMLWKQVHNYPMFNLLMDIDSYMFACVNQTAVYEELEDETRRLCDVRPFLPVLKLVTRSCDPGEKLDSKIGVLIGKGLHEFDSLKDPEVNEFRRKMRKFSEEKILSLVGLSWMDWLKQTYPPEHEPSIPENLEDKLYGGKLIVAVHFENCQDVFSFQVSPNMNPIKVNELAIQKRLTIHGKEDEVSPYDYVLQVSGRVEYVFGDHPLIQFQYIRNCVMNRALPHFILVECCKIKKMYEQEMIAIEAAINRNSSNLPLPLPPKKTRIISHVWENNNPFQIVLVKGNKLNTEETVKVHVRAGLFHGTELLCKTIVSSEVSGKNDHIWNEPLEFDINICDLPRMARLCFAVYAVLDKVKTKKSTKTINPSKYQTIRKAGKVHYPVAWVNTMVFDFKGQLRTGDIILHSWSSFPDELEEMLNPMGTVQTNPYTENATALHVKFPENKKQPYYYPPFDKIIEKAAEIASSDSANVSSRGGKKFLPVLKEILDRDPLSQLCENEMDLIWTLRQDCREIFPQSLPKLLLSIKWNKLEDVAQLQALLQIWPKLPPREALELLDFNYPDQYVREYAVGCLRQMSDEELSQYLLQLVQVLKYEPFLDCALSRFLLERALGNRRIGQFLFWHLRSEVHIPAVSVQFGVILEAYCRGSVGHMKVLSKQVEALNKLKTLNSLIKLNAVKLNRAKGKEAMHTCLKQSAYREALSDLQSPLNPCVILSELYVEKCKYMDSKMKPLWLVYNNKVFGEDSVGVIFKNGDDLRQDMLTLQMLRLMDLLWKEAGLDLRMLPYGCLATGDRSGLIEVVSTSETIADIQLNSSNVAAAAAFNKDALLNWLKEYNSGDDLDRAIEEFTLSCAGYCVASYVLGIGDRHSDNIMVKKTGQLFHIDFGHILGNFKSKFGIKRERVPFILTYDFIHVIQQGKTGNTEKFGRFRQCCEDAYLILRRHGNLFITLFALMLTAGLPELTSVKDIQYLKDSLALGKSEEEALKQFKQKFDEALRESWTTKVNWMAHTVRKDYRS
Sequence of MAP/microtubule affinity-regulating kinase 3 (Homo sapiens) (P27448 whole entry, looked up): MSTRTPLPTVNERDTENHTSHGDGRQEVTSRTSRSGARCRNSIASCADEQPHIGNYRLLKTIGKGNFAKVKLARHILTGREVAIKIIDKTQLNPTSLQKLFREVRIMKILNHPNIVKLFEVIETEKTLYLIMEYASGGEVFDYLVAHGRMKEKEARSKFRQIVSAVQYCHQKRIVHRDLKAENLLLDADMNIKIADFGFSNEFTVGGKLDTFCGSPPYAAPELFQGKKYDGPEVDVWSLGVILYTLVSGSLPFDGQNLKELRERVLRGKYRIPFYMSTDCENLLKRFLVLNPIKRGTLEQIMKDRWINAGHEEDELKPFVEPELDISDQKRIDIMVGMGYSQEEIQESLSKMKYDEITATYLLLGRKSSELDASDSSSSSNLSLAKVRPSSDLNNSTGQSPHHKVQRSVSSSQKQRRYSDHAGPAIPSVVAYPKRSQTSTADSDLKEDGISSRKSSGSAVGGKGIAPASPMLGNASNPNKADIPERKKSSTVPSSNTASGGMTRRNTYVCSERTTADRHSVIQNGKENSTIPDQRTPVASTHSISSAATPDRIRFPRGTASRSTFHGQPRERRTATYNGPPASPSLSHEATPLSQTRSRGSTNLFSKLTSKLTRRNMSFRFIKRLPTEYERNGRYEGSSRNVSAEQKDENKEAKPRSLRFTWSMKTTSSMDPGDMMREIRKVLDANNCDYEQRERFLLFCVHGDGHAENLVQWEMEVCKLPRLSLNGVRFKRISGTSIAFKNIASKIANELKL
Sequence of Tyrosine-protein kinase Mer (Homo sapiens) (Q12866 whole entry): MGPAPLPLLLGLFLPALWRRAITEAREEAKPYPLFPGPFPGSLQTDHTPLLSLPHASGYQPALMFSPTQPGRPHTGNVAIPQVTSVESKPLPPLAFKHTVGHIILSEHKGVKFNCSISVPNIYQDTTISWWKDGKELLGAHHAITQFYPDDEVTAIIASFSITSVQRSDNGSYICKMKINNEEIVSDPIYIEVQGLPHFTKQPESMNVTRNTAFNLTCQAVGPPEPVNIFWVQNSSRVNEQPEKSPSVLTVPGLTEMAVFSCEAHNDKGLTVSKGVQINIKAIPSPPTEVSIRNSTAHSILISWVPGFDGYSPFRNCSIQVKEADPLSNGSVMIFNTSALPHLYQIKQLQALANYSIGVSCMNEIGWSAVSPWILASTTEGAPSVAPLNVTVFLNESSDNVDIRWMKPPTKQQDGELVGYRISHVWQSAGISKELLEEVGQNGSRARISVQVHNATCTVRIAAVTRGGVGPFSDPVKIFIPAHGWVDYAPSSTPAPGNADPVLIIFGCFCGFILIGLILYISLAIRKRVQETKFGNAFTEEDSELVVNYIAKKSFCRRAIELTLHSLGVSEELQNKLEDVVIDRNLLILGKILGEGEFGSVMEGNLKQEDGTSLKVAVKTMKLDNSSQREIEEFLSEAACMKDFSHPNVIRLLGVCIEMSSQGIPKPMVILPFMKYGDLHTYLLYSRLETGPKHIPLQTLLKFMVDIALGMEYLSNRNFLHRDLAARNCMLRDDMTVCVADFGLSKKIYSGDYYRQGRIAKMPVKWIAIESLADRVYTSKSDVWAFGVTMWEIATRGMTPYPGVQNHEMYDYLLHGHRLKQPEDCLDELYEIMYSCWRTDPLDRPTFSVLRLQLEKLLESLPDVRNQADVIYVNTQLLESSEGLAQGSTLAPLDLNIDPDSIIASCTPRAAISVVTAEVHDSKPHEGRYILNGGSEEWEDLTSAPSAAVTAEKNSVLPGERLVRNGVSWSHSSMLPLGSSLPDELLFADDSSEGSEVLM
Sequence of Homeodomain-interacting protein kinase 4 (Homo sapiens) (Q8NE63 whole entry): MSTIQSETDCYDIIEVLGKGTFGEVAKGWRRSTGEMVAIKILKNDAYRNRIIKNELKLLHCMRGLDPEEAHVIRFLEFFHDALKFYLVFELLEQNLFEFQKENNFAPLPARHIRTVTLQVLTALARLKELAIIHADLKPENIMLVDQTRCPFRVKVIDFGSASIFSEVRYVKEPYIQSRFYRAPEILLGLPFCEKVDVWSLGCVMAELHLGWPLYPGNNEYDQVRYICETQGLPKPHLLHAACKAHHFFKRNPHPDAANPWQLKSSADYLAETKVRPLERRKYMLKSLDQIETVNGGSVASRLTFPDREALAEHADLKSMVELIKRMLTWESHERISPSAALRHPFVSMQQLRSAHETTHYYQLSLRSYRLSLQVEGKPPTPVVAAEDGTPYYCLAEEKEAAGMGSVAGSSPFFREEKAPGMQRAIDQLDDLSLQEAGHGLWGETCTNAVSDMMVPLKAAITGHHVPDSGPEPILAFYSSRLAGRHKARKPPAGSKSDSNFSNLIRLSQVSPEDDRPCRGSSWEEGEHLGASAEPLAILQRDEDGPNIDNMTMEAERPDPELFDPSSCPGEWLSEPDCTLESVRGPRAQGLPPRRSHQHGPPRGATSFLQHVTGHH
Sequence of Serine/threonine-protein kinase Nek6 (Homo sapiens) (Q9HC98 whole entry): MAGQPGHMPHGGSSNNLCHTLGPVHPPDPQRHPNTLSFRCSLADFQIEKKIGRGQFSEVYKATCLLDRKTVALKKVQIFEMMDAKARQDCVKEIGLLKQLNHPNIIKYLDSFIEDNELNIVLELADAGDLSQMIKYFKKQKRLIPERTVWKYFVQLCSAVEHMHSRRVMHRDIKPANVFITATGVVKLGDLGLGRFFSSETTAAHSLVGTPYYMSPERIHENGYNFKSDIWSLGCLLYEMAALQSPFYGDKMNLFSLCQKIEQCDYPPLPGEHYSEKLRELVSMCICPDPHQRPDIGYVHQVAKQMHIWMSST

inhibition [1] | inhibition [2] | inhibition [3] | inhibition [4] | inhibition [5] | inhibition [6] | inhibition [7] | inhibition [8] | inhibition [9] | inhibition [10] | inhibition [11] | inhibition [12] | inhibition [13] | inhibition [14] | inhibition [15] | inhibition [16] | inhibition [17] | inhibition [18] | inhibition [19] | inhibition [20] | Structure (SMILES) | also measured
-1% | 5% | -1% | 77% | 37% | 2% | 6% | 99% | 6% | 0% | 36% | 1% | 0% | 2% | 29% | 66% | 100% | -1% | -1% | 9% | CC(C)n1nc(C#Cc2cccc(NC(=O)c3cccc(C(F)(F)F)c3)c2)c2c(N)ncnc21 | inhibition [21]: 67%; inhibition [22]: 0%; inhibition [23]: 3%; inhibition [24]: 3%; inhibition [25]: 5%; inhibition [26]: 0%; inhibition [27]: -10%; inhibition [28]: 29%; inhibition [29]: 6%; inhibition [30]: -1%; inhibition [31]: 11%; inhibition [32]: 9%; inhibition [33]: 100%
-7% | 3% | 3% | 3% | 33% | 0% | 1% | 89% | 0% | -1% | 3% | -5% | -5% | 2% | 0% | 33% | 90% | 2% | 1% | 1% | CC(C)n1nc(C#Cc2cccc3cc(-c4cccc(C(F)(F)F)c4)ncc23)c2c(N)ncnc21 | inhibition [21]: 2%; inhibition [22]: -4%; inhibition [23]: 8%; inhibition [24]: 1%; inhibition [25]: -2%; inhibition [26]: 1%; inhibition [27]: 0%; inhibition [28]: 9%; inhibition [29]: 0%; inhibition [30]: 0%; inhibition [31]: 6%; inhibition [32]: 0%; inhibition [33]: 95%
